Data on 13 compounds can be found in patent US20260053932A1, “COMPOUNDS AND METHODS FOR THE TARGETED DEGRADATION OF ANDROGEN RECEPTOR AND ASSOCIATED METHODS OF USE” (Arvinas Operations, Inc., priority 2020, published 2026).

Some results are limits rather than exact numbers.

This test deals with androgen receptor (AR) in LNCaP and/or VCaP cells. Description: Androgen Receptor ELISA assay (AR degradation). It is filed as cell-based. The note with it: LNCaP and/or VCaP cells; 5 hours incubation; media with R1881; read-out: DC50 Code* (degradation of AR ELISA). An outline of the steps:
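VCaP cells grown ≥3 days, then treated 5 h with compound in media containing 1 nM R1881 (10× stock). Cells lysed and AR quantified by sandwich ELISA (mouse AR detection Ab, HRP anti-mouse, TMB). DC50 and Dmax derived from AR degradation.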
On the technique in general: In an ELISA, binding on a coated surface is turned into a signal by an enzyme label.

What is called DC50 is the concentration at which degradation of the target reaches its halfway point. Turning to `CC(C)N(CC1CCN(c2ccc(C(=O)N[C@H]3CC[C@H](Oc4ccc(C#N)c(Cl)c4)CC3)nn2)CC1)[C@H]1CC[C@H](Oc2ccc3c(c2)C(=O)N(C2CCC(=O)NC2=O)C3=O)CC1` (stereo partly shown) [Compound 47, N-((1r,4r)-4-(3-chloro-4-cyanophenoxy)cyclohexyl)-6-(4-((((1r,4r)-4-((2-(2,6-dioxopiperidin-3-yl)-1,3-dioxoisoindolin-5-yl)oxy)cyclohexyl) (isopropyl)amino)methyl)piperidin-1-yl)pyridazine-3-carboxamide], the DC50 was under 1 nM.
Consider `N#Cc1ccc(O[C@H]2CC[C@H](NC(=O)c3cnc(N4CCC(CN(CC5COC5)[C@H]5C[C@H](Oc6ccc7c(c6)C(=O)N(C6CCC(=O)NC6=O)C7)C5)CC4)cn3)CC2)cc1Cl` (stereo partly shown) [Compound 48, N-((1r,4r)-4-(3-chloro-4-cyanophenoxy)cyclohexyl)-5-(4-((((1r,3r)-3-((2-(2,6-dioxopiperidin-3-yl)-3-oxoisoindolin-5-yl)oxy)cyclobutyl)(oxetan-3-ylmethyl)amino)methyl)piperidin-1-yl)pyrazine-2-carboxamide], for which the DC50 is under 1 nM.
In the case of `N#Cc1ccc(O[C@H]2CC[C@H](NC(=O)c3ccc(N4CCC(CN5CCN(c6ccc7c(c6F)C(=O)N(C6CCC(=O)NC6=O)C7=O)CC5)CC4)nn3)CC2)cc1Cl` (stereo partly shown) [Compound 49] it was under 1 nM; in that of `CC(=O)N(CC1CCN(c2cnc(C(=O)N[C@H]3CC[C@H](Oc4cc(C)c(C#N)c(C)c4)CC3)cn2)CC1)[C@H]1C[C@H](Oc2ccc3c(c2)C(=O)N(C2CCC(=O)NC2=O)C3=O)C1` (stereo partly shown) [Compound 50, N-((1r,4r)-4-(4-cyano-3,5-dimethylphenoxy)cyclohexyl)-5-(4-((N-((1r,3r)-3-((2-(2,6-dioxopiperidin-3-yl)-1,3-dioxoisoindolin-5-yl)oxy)cyclobutyl)acetamido)methyl)piperidin-1-yl)pyrazine-2-carboxamide], under 1 nM.
In the case of `CC(C)N(CC1CCN(c2cnc(C(=O)N[C@H]3CC[C@H](Oc4ccc(C#N)c(Cl)c4)CC3)cn2)CC1)[C@H]1C[C@H](Oc2ccc3c(c2F)C(=O)N(C2CCC(=O)NC2=O)C3=O)C1` (stereo partly shown) [Compound 52, N-((1r,4r)-4-(3-chloro-4-cyanophenoxy)cyclohexyl)-5-(4-((((1r,3r)-3-((2-(2,6-dioxopiperidin-3-yl)-4-fluoro-1,3-dioxoisoindolin-5-yl)oxy)cyclobutyl) (isopropyl)amino)methyl)piperidin-1-yl)pyrazine-2-carboxamide] it was under 1 nM; in that of `N#Cc1ccc(O[C@H]2CC[C@H](NC(=O)c3cnc(N4CCC(CN(CC5COC5)[C@H]5C[C@H](Oc6ccc7c(c6)C(=O)N(C6CCC(=O)NC6=O)C7=O)C5)CC4)cn3)CC2)cc1Cl` (stereo partly shown) [Compound 53, N-((1r,4r)-4-(3-chloro-4-cyanophenoxy)cyclohexyl)-5-(4-((((1r,3r)-3-((2-(2,6-dioxopiperidin-3-yl)-1,3-dioxoisoindolin-5-yl)oxy)cyclobutyl) (oxetan-3-ylmethyl)amino)methyl)piperidin-1-yl)pyrazine-2-carboxamide], under 1 nM.
To `COCC(C)N(CC1CCN(c2cnc(C(=O)N[C@H]3CC[C@H](Oc4ccc(C#N)c(Cl)c4)CC3)cn2)CC1)[C@H]1C[C@H](Oc2ccc3c(c2)C(=O)N(C2CCC(=O)NC2=O)C3=O)C1` (stereo partly shown) [Compound 55, N-((1r,4r)-4-(3-chloro-4-cyanophenoxy)cyclohexyl)-5-(4-((((1r,3r)-3-((2-(2,6-dioxopiperidin-3-yl)-1,3-dioxoisoindolin-5-yl)oxy)cyclobutyl)(1-methoxypropan-2-yl)amino)methyl)piperidin-1-yl)pyrazine-2-carboxamide] belongs under 1 nM.
With `COc1cc(O[C@H]2CC[C@H](NC(=O)c3cnc(N4CC5(CC(CN(C(C)C)[C@H]6C[C@H](Oc7ccc8c(c7)C(=O)N(C7CCC(=O)NC7=O)C8=O)C6)C5)C4)cn3)CC2)ccc1C#N` (stereo partly shown) [Compound 56, N-((1r,4r)-4-(4-cyano-3-methoxyphenoxy)cyclohexyl)-5-(6-((((1r,3r)-3-((2-(2,6-dioxopiperidin-3-yl)-1,3-dioxoisoindolin-5-yl)oxy)cyclobutyl) (isopropyl)amino)methyl)-2-azaspiro[3.3]heptan-2-yl)pyrazine-2-carboxamide], the DC50 is under 1 nM.
In the case of `COc1cc(O[C@H]2CC[C@H](NC(=O)c3cnc(N4CC(CN(C(C)C)[C@H]5C[C@H](Oc6ccc7c(c6)C(=O)N(C6CCC(=O)NC6=O)C7=O)C5)C4)nc3)CC2)ccc1C#N` (stereo partly shown) [Compound 57, N-((1r,4r)-4-(4-cyano-3-methoxyphenoxy)cyclohexyl)-2-(3-((((1r,3r)-3-((2-(2,6-dioxopiperidin-3-yl)-1,3-dioxoisoindolin-5-yl)oxy)cyclobutyl) (isopropyl)amino)methyl)azetidin-1-yl)pyrimidine-5-carboxamide] it was under 1 nM.
In the case of `COCCN(CC1CCN(c2cnc(C(=O)N[C@H]3CC[C@H](Oc4ccc(C#N)c(Cl)c4)CC3)cn2)CC1)[C@H]1C[C@H](Oc2ccc3c(c2)C(=O)N(C2CCC(=O)NC2=O)C3=O)C1` (stereo partly shown) [Compound 58, N-((1r,4r)-4-(3-chloro-4-cyanophenoxy)cyclohexyl)-5-(4-((((1r,3r)-3-((2-(2,6-dioxopiperidin-3-yl)-1,3-dioxoisoindolin-5-yl)oxy)cyclobutyl)(2-methoxyethyl)amino)methyl)piperidin-1-yl)pyrazine-2-carboxamide] it was under 1 nM; in that of `CC(C)N(CC1CCN(c2ncc(C(=O)NC3CCC(Oc4ccc(C#N)c(Cl)c4)CC3)cn2)CC1)C1CCC(Oc2ccc3c(c2)C(=O)N(C2CCC(=O)NC2=O)C3=O)CC1` (stereo not shown) [Compound 59, N-((1r,4r)-4-(3-chloro-4-cyanophenoxy)cyclohexyl)-2-(4-((((1r,4r)-4-((2-(2,6-dioxopiperidin-3-yl)-1,3-dioxoisoindolin-5-yl)oxy)cyclohexyl) (isopropyl)amino)methyl)piperidin-1-yl)pyrimidine-5-carboxamide], under 1 nM; in that of `CC(C)N(CC1CCN(c2ncc(C(=O)N[C@H]3CC[C@H](Oc4ccc(C#N)c(Cl)c4)CC3)cn2)CC1)[C@H]1C[C@H](Oc2ccc3c(c2)C(=O)N(C2CCC(=O)NC2=O)C3)C1` (stereo partly shown) [Compound 60, N-((1r,4r)-4-(3-chloro-4-cyanophenoxy)cyclohexyl)-2-(4-((((1r,3r)-3-((2-(2,6-dioxopiperidin-3-yl)-3-oxoisoindolin-5-yl)oxy)cyclobutyl) (isopropyl)amino)methyl)piperidin-1-yl)pyrimidine-5-carboxamide], under 1 nM.
Consider `N#Cc1ccc(O[C@H]2CC[C@H](NC(=O)c3cnc(N4CCC(CN(C5COC5)[C@H]5C[C@H](Oc6ccc7c(c6)C(=O)N(C6CCC(=O)NC6=O)C7=O)C5)CC4)cn3)CC2)cc1Cl` (stereo partly shown) [Compound 61, N-((1r,4r)-4-(3-chloro-4-cyanophenoxy)cyclohexyl)-5-(4-((((1r,3r)-3-((2-(2,6-dioxopiperidin-3-yl)-1,3-dioxoisoindolin-5-yl)oxy)cyclobutyl) (oxetan-3-yl)amino)methyl)piperidin-1-yl)pyrazine-2-carboxamide], for which the DC50 was under 1 nM.
